Measurements reported in US10457703B2, “Bile acid derivatives as FXR/TGR5 agonists and methods of use thereof” (ENANTA PHARMACEUTICALS, INC., priority 2015, dated 2019).

Biological target: human FXR (NR1H4) (Homo sapiens (Human), UniProt Q96RI1)
Experiment: Human FXR (NR1H4) Assay (Gal4 promoter driven luciferase reporter, Indigo Bioscience kit);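 for Efficacy (%): 100% equals the efficacy of CDCA; efficacy normalized to CDCA set as 100%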
Format: cell-based
Details: for EC50: Human FXR (NR1H4) Assay, potency ranges; for Emax: read-out: Efficacy (%)
Method in brief: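 CHO reporter cells expressing human FXR with an FXR-responsive luciferase reporter, treated with compound doses at 0.2% DMSO. Incubation lasted 22 h at 37 °C before luciferase detection reagent was added. Luminescence was then read.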

human FXR (NR1H4), sequence (Q96RI1 whole entry, the tested form may be a part): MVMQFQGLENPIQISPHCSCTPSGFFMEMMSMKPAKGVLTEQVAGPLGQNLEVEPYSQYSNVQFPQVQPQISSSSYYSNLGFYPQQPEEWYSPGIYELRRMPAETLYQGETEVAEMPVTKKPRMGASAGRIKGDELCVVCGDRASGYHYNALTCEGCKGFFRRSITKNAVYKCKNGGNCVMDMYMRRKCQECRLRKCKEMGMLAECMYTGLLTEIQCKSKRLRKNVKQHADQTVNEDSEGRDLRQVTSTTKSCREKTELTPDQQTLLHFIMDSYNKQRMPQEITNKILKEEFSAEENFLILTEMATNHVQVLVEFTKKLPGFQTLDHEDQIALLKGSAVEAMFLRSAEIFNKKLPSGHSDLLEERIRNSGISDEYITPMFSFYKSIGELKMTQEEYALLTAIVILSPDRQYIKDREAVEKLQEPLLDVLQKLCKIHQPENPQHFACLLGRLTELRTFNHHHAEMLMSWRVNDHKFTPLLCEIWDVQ

Structure (SMILES)	EC50 [nM]	Emax [%]
CC[C@H]1[C@@H](O)[C@@H]2[C@H](CC[C@]3(C)[C@@H]([C@H](C)CCCOC(=O)N(CC)CC)CC[C@@H]23)[C@@]2(C)CC[C@@H](O)C[C@@H]12 [Example 132]	1000 to 10000	205
CC[C@H]1[C@@H](O)[C@@H]2[C@H](CC[C@]3(C)[C@@H]([C@H](C)COC(=O)NS(=O)(=O)c4cccc(-c5ncco5)c4)CC[C@@H]23)[C@@]2(C)CC[C@@H](O)C[C@@H]12 [Example 44-i]	100 to 1000	210
CC[C@H]1[C@@H](O)[C@@H]2[C@H](CC[C@]3(C)[C@@H]([C@H](C)CCCOC(=O)NS(C)(=O)=O)CC[C@@H]23)[C@@]2(C)CC[C@@H](O)C[C@@H]12 [Example 113]	1000 to 10000	130
CC[C@H]1[C@@H](O)[C@@H]2[C@H](CC[C@]3(C)[C@@H]([C@H](C)CCCOC(=O)NS(=O)(=O)c4ccc5ccccc5c4)CC[C@@H]23)[C@@]2(C)CC[C@@H](O)C[C@@H]12 [Example 115]	100 to 1000	376
CCOC(=O)CNC(=O)OCC[C@@H](C)[C@H]1CC[C@H]2[C@@H]3[C@H](O)[C@H](CC)[C@@H]4C[C@H](O)CC[C@]4(C)[C@H]3CC[C@]12C [Example 156]	100 to 1000	193
CC[C@H]1[C@@H](O)[C@@H]2[C@H](CC[C@]3(C)[C@@H]([C@H](C)CCOC(=O)NCC(C)(C)C)CC[C@@H]23)[C@@]2(C)CC[C@@H](O)C[C@@H]12 [Example 190]	100 to 1000	410
CC[C@H]1[C@@H](O)[C@@H]2[C@H](CC[C@]3(C)[C@@H]([C@H](C)COC(=O)NS(=O)(=O)c4ccc(C(C)(C)C)cc4)CC[C@@H]23)[C@@]2(C)CC[C@@H](O)C[C@@H]12 [Example 4]	< 100	319
CC[C@H]1[C@@H](O)[C@@H]2[C@H](CC[C@]3(C)[C@@H]([C@H](C)COC(=O)NS(=O)(=O)c4ccc(-n5cncn5)cc4)CC[C@@H]23)[C@@]2(C)CC[C@@H](O)C[C@@H]12 [Example 44-f]	< 100	216
CC[C@H]1[C@@H](O)[C@@H]2[C@H](CC[C@]3(C)[C@@H]([C@H](C)COC(=O)NC4CC4)CC[C@@H]23)[C@@]2(C)CC[C@@H](O)C[C@@H]12 [Example 198]	1000 to 10000	139
CC[C@H]1[C@@H](O)[C@@H]2[C@H](CC[C@]3(C)[C@@H]([C@H](C)CCOC(=O)N4CC(=O)N(Cc5ccccc5)S4(=O)=O)CC[C@@H]23)[C@@]2(C)CC[C@@H](O)C[C@@H]12 [Example 109]	1000 to 10000	142
CC[C@H]1[C@@H](O)[C@@H]2[C@H](CC[C@]3(C)[C@@H]([C@H](C)COC(=O)NS(=O)(=O)c4ccc(C)cc4)CC[C@@H]23)[C@@]2(C)CC[C@@H](O)C[C@@H]12 [Example 5]	100 to 1000	85
CC[C@H]1[C@@H](O)[C@@H]2[C@H](CC[C@]3(C)[C@@H]([C@H](C)COC(=O)NS(=O)(=O)c4ccc(O)cc4)CC[C@@H]23)[C@@]2(C)CC[C@@H](O)C[C@@H]12 [Example 39]	100 to 1000	182
CC[C@H]1[C@@H](O)[C@@H]2[C@H](CC[C@]3(C)[C@@H]([C@H](C)CCOC(=O)NS(=O)(=O)N(C)C)CC[C@@H]23)[C@@]2(C)CC[C@@H](O)C[C@@H]12 [Example 50]	< 100	291
CC[C@H]1[C@@H](O)[C@@H]2[C@H](CC[C@]3(C)[C@@H]([C@H](C)CCOC(=O)NS(=O)(=O)C4CCCCC4)CC[C@@H]23)[C@@]2(C)CC[C@@H](O)C[C@@H]12 [Example 104-a]	< 100	242
CC[C@H]1[C@@H](O)[C@@H]2[C@H](CC[C@]3(C)[C@@H]([C@H](C)CCOC(=O)N4CCC(Cc5ccccc5)CC4)CC[C@@H]23)[C@@]2(C)CC[C@@H](O)C[C@@H]12 [Example 161]	100 to 1000	226
CC[C@H]1[C@@H](O)[C@@H]2[C@H](CC[C@]3(C)[C@@H]([C@H](C)COC(=O)NS(=O)(=O)c4ccc(N5CCC(F)(F)CC5)cc4)CC[C@@H]23)[C@@]2(C)CC[C@@H](O)C[C@@H]12 [Example 21]	< 100	225
CC[C@H]1[C@@H](O)[C@@H]2[C@H](CC[C@]3(C)[C@@H]([C@H](C)CCOC(=O)NC4CCCCCC4)CC[C@@H]23)[C@@]2(C)CC[C@@H](O)C[C@@H]12 [Example 138]	100 to 1000	297
CC[C@H]1[C@@H](O)[C@@H]2[C@H](CC[C@]3(C)[C@@H]([C@H](C)CCOC(=O)NS(=O)(=O)c4cccc(C(C)(C)C)c4)CC[C@@H]23)[C@@]2(C)CC[C@@H](O)C[C@@H]12 [Example 54]	100 to 1000	290
CC[C@H]1[C@@H](O)[C@@H]2[C@H](CC[C@]3(C)[C@@H]([C@H](C)CCOC(=O)NS(=O)(=O)c4ccccc4C(F)(F)F)CC[C@@H]23)[C@@]2(C)CC[C@@H](O)C[C@@H]12 [Example 80]	100 to 1000	363

Structure (SMILES)	EC50 [nM]	Emax [%]
CC[C@H]1[C@@H](O)[C@@H]2[C@H](CC[C@]3(C)[C@@H]([C@H](C)CCOC(=O)NC4CCCC4O)CC[C@@H]23)[C@@]2(C)CC[C@@H](O)C[C@@H]12 (some centres unmarked) [Example 195]	< 100	288
CC[C@H]1[C@@H](O)[C@@H]2[C@H](CC[C@]3(C)[C@@H]([C@H](C)COC(=O)NS(=O)(=O)c4ccc(N5CCCCCC5)cc4)CC[C@@H]23)[C@@]2(C)CC[C@@H](O)C[C@@H]12 [Example 22]	< 100	262
CC[C@H]1[C@@H](O)[C@@H]2[C@H](CC[C@]3(C)[C@@H]([C@H](C)CCOC(=O)N4CCOCC4)CC[C@@H]23)[C@@]2(C)CC[C@@H](O)C[C@@H]12 [Example 160]	100 to 1000	142
CC[C@H]1[C@@H](O)[C@@H]2[C@H](CC[C@]3(C)[C@@H]([C@H](C)CCOC(=O)NS(=O)(=O)c4cccc(OC)c4)CC[C@@H]23)[C@@]2(C)CC[C@@H](O)C[C@@H]12 [Example 86]	100 to 1000	288
CC[C@H]1[C@@H](O)[C@@H]2[C@H](CC[C@]3(C)[C@@H]([C@H](C)CCCOC(=O)NS(=O)(=O)C4CCCCC4)CC[C@@H]23)[C@@]2(C)CC[C@@H](O)C[C@@H]12 [Example 2]	100 to 1000	247
CC[C@H]1[C@@H](O)[C@@H]2[C@H](CC[C@]3(C)[C@@H]([C@H](C)CCOC(=O)N4CCC(C(N)=O)CC4)CC[C@@H]23)[C@@]2(C)CC[C@@H](O)C[C@@H]12 [Example 171]	100 to 1000	179
CC[C@H]1[C@@H](O)[C@@H]2[C@H](CC[C@]3(C)[C@@H]([C@H](C)CCOC(=O)N4CC[C@H](CO)C4)CC[C@@H]23)[C@@]2(C)CC[C@@H](O)C[C@@H]12 [Example 211]	< 100	198
CC[C@H]1[C@@H](O)[C@@H]2[C@H](CC[C@]3(C)[C@@H]([C@H](C)CCOC(=O)NS(=O)(=O)c4cccnc4)CC[C@@H]23)[C@@]2(C)CC[C@@H](O)C[C@@H]12 [Example 95]	1000 to 10000	420
CC[C@H]1[C@@H](O)[C@@H]2[C@H](CC[C@]3(C)[C@@H]([C@H](C)CCCOC(=O)N4CCCC4)CC[C@@H]23)[C@@]2(C)CC[C@@H](O)C[C@@H]12 [Example 131]	100 to 1000	202
CC[C@H]1[C@@H](O)[C@@H]2[C@H](CC[C@]3(C)[C@@H]([C@H](C)CCOC(=O)NS(=O)(=O)c4ccccc4OC(F)(F)F)CC[C@@H]23)[C@@]2(C)CC[C@@H](O)C[C@@H]12 [Example 77]	100 to 1000	383
CC[C@H]1[C@@H](O)[C@@H]2[C@H](CC[C@]3(C)[C@@H]([C@H](C)CCOC(=O)NS(=O)(=O)c4ccc(C(F)(F)F)cc4)CC[C@@H]23)[C@@]2(C)CC[C@@H](O)C[C@@H]12 [Example 79]	< 100	376
CC[C@H]1[C@@H](O)[C@@H]2[C@H](CC[C@]3(C)[C@@H]([C@H](C)CCOC(=O)NC4CC4)CC[C@@H]23)[C@@]2(C)CC[C@@H](O)C[C@@H]12 [Example 123]	< 100	379
CC[C@H]1[C@@H](O)[C@@H]2[C@H](CC[C@]3(C)[C@@H]([C@H](C)CCOC(=O)NCc4ccc(C(C)(C)C)cc4)CC[C@@H]23)[C@@]2(C)CC[C@@H](O)C[C@@H]12 [Example 189]	1000 to 10000	215
CCCCS(=O)(=O)NC(=O)OCC[C@@H](C)[C@H]1CC[C@H]2[C@@H]3[C@H](O)[C@H](CC)[C@@H]4C[C@H](O)CC[C@]4(C)[C@H]3CC[C@]12C [Example 57]	< 100	392
CC[C@H]1[C@@H](O)[C@@H]2[C@H](CC[C@]3(C)[C@@H]([C@H](C)COC(=O)NS(=O)(=O)c4ccc(-c5ccc(C(C)(C)C)cc5)s4)CC[C@@H]23)[C@@]2(C)CC[C@@H](O)C[C@@H]12 [Example 25]	100 to 1000	182
CC[C@H]1[C@@H](O)[C@@H]2[C@H](CC[C@]3(C)[C@@H]([C@H](C)CCOC(=O)NS(=O)(=O)c4ccccc4OC)CC[C@@H]23)[C@@]2(C)CC[C@@H](O)C[C@@H]12 [Example 84]	< 100	270
CC[C@H]1[C@@H](O)[C@@H]2[C@H](CC[C@]3(C)[C@@H]([C@H](C)COC(=O)NS(=O)(=O)c4ccc(-n5cncn5)nc4)CC[C@@H]23)[C@@]2(C)CC[C@@H](O)C[C@@H]12 [Example 44-l]	100 to 1000	165
CC[C@H]1[C@@H](O)[C@@H]2[C@H](CC[C@]3(C)[C@@H]([C@H](C)CCOC(=O)NS(=O)(=O)c4ccc(C)cc4)CC[C@@H]23)[C@@]2(C)CC[C@@H](O)C[C@@H]12 [Example 104-b]	< 100	363
